Reference: PMC8658963, “Synthesis and Evaluation of Trypanocidal Activity of Chromane-Type Compounds and Acetophenones” (Molecules, 2021)
Read-outs that look alike come from different tables or passages of the source.

Columns and labels:
in vitro = settings: human, Cytotoxicity (LC50)
Description: (§1) Cytotoxicity was evaluated in the human monocyte cell line U-937 (ATCC CRL-1593.2) at the exponential growth phase, adjusted at 1 × 10^5 cells/mL in complete RPMI-1640 medium (RPMI-1640 enriched with 200 mM L-glutamine, 10% inactivated fetal bovine serum (FBS) and 1% of a mixture of 10,000 IU/mL penicillin plus […] streptomycin). Then, in each well of a 96-well tissue culture plate were dispensed […] of cells plus […] of each compound (as one of six serials 1:2 dilution concentrations starting at 368 µM prepared in the same medium). Doxorubicin was included as an internal positive control under the same dilution pattern, starting at 18 µM whereas unexposed cells were used as negative controls. Afterward, cells were incubated for 72 h at 37 °C and 5% CO2. Cell viability was assayed by the MTT reduction assay according to the optical density (O.D) at 570 nm of the resulting reduction of formazan in a Varioskan Flash Multimode Reader (Thermo Scientific, Waltham, MA, USA). Nonspecific absorbance was corrected by subtracting the O.D of the blank solution that corresponded to complete RPMI-1640 medium. The assay was done in triplicate in at least two independent experiments.
(§2) The cytotoxicity was expressed as the medial lethal concentration (LC50), while the trypanocidal activity was defined as the median effective concentration (EC50) according to the percentage of inhibition of cells and parasites, respectively, as described elsewhere. Both LC50 and EC50 were calculated by the Probit analysis. […] Similarly, the trypanocidal activity was graded according to EC50 values, based on the hit criteria proposed by others into high when EC50 was lower than 10 μM, moderate when EC50 values were higher than 10 μM but lower than 50 μM and, low when EC50 was higher than 50 μM. The relation between cytotoxicity and trypanocidal activity was expressed as the index of selectivity (IS) that corresponded to the ratio when dividing the LC50 by the EC50.

[1] = tested on: human monocyte cell line U-937 (ATCC CRL-1593.2); experiment: Cytotoxic activity, MTT reduction assay, 72 h; settings: for Cytotoxicity level (grade): U937 cells, graded by LC50; for CC50 / Cytotoxicity (LC50): human, 72 h
Description: as §1, §2

[2] = tested on: intracellular amastigotes of T. cruzi (Tulahuen strain transfected with the β-galactosidase gene); experiment: Anti-trypanosomal activity, β-galactosidase readout in infected U937 macrophages, 72 h; type: cell-based, Trypanosoma cruzi; settings: for SI (index of selectivity, IS = LC50/EC50): LC50 in U937 cells divided by EC50 against T. cruzi; for Trypanocidal activity compared with the control drug BNZ / Trypanocidal activity (grade): T. cruzi intracellular amastigotes; for Trypanocidal activity compared with the control drug BNZ: result in words
Description: This activity was carried out in intracellular amastigotes of T. cruzi (Tulahuen strain transfected with the β-galactosidase gene. Briefly, metacyclic trypomastigotes were cultured at 26 °C for ten days in a modified NNN (Novy−McNeal−Nicolle) medium. U937 cells were seeded in 96-well tissue culture plates at a density of 2.5 × 10^4 cells in 100 μL of complete RPMI-1640 medium/well and exposed for 24 h to phorbol myristate acetate (1 ng/mL) to induce transformation of monocytes into macrophages. Cells were infected with trypomastigotes (5 parasites per cell) and incubated for 24 h at 37 °C, 5% CO2. Wells were washed twice with warm phosphate buffer solution (PBS) to remove noninternalized parasites, and then were added 100 μL of complete RPMI-1640 medium and 100 μL of each concentration of compound (50, 12.5, 3.125 μM). BNZ, at the same concentrations, was used as internal control for trypanocidal activity (positive control), and nontreated cells as controls for infection (negative control). After 72 h of incubation 37 °C, 5% CO2, the viability of intracellular amastigotes was determined by measuring the β-galactosidase activity. For this, 100 μM of Chlorophenol red-β-D- galactopyranoside (CPRG), and 0.1% Nonidet P-40 was added to each well and incubated for 4 h at 37 °C, […] protected from light. After that, measurement β-galactosidase activity was measured at 570 nm on a Varioskan, Thermo spectrophotometer. Nonspecific absorbance was subtracted from the measurement. Infected cells exposed to benznidazole were used as controls for anti-trypanosomal activity. Determinations were done in triplicate with at least two independent experiments.

[3] = Trypanosoma cruzi, TULAHUEN, U-937, 72 h, intracellular amastigotes of T. cruzi Tulahuen in U937 macrophages, 72 h, average ± SD (SEM), read-out: Trypanocidal Activity (EC50)
[4] = Trypanosoma cruzi, TULAHUEN, U-937, T. cruzi intracellular amastigotes, graded by EC50, read-out: Trypanocidal activity (grade)
[5] = Trypanosoma cruzi, TULAHUEN, U-937, 72 h, read-out: Trypanocidal Activity (EC50), intracellular amastigotes of T. cruzi Tulahuen in U937 macrophages, 72 h, average ± SD (SEM)
[6] = read-out: Trypanocidal Activity (EC50), intracellular amastigotes of T. cruzi Tulahuen in U937 macrophages, 72 h, average ± SD (SEM)
[7] = Trypanosoma cruzi, TULAHUEN, U-937, read-out: Trypanocidal activity (grade), T. cruzi intracellular amastigotes, graded by EC50

SMILES | CC50 at 72 h (in vitro) | EC50 [2, 3] | SI (index of selectivity, IS = LC50/EC50) [2] | Trypanocidal activity compared with the control drug BNZ [2] | EC50 [2, 5] | also measured
O=C(Cn1ccnc1[N+](=O)[O-])NCc1ccccc1 [BNZ, benznidazole, reference compound] | > 768 µM | 56.5 ± 1.5 µM | – | – | – | Cytotoxicity level (grade) [1]: no cytotoxicity; EC50 [2, 4]: 10 to 50 µM
CC(=O)c1c(O)cc(O)cc1O [Compound 9, 1-(2,4,6-Trihydroxyphenyl)ethan-1-one] | > 200 µM | 49.3 ± 9 µM | >4.1 | – | – | EC50 [2, 4]: 10 to 50 µM
CC(=O)c1cc(O)ccc1O [Compound 6, 1-(2,5-Dihydroxyphenyl)ethan-1-one] | < 10 µM | – | – | much better trypanocidal activity than the control drug BNZ | – | Cytotoxicity level (grade) [1]: high (high when LC50 values were lower than 50 μM); CC50 [1]: 6.3 µM
CC(=O)c1c(O)ccc(CC=C(C)C)c1O [Compound 16, 1-(2,6-Dihydroxy-3-(3-methylbut-2-en-1-yl)phenyl)ethan-1-one] | < 10 µM | – | <2 | – | > 4 µM | Cytotoxicity level (grade) [1]: high (high when LC50 values were lower than 50 μM); CC50 [1]: 7.8 ± 3.1 µM
O=c1ccoc2cccc(O)c12 [Compound 12, 5-Hydroxy-4H-chromen-4-one] | > 100 µM | 19.9 ± 1.3 µM | >5.0 | much better trypanocidal activity than the control drug BNZ | – | EC50 [2, 4]: 10 to 50 µM
O=c1ccoc2c(O)c(O)ccc12 [Compound 13, 7,8-Dihydroxy-4H-chromen-4-one] | 43 ± 0.9 µM | 154 ± 26.8 µM | 0.3 | – | – | Trypanocidal activity (grade) ([2]; graded by EC50): very low
CC(=O)c1cc(CC=C(C)C)c(O)c(O)c1O [Compound 18, 1-(2,3,4-Trihydroxy-5-(3-methylbut-2-en-1-yl)phenyl)ethan-1-one] | < 10 µM | – | – | – | – | Cytotoxicity level (grade) [1]: high (high when LC50 values were lower than 50 μM); CC50 [1]: 5 ± 1.7 µM
CC(=O)c1ccc(O)cc1O [Compound 5, 1-(2,4-Dihydroxyphenyl)ethan-1-one] | 54 ± 0.5 µM | 17.8 ± 0.8 µM | 3.0 | – | – | –
COc1cccc2c1C(=O)c1c(O)c3c(c(O)c1C2=O)C[C@@](O)(C(=O)CO)C[C@@H]3O[C@H]1C[C@H](N)[C@H](O)[C@H](C)O1 [DOX, doxorubicin, reference compound] | 0.5 µM | – | – | – | – | –
CC(C)=CCc1cc2c(=O)ccoc2cc1O [Compound 23, 7-Hydroxy-6-(3-methylbut-2-en-1-yl)-4H-chromen-4-one] | > 200 µM | – | >10 | – | > 20 µM | –
COCOc1cc2oc(-c3ccc(Cl)cc3)cc(=O)c2cc1CC=C(C)C [Compound 30, 2-(4-Chlorophenyl)-7-(methoxymethoxy)-6-(3-methylbut-2-en-1-yl)-4H-chromen-4-one] | 27.2 ± 3.3 µM | – | <2 | much better trypanocidal activity than the control drug BNZ | > 13.6 µM | –
CC(C)=CCc1cc2c(=O)ccoc2c(O)c1O [Compound 26, 7,8-Dihydroxy-6-(3-methylbut-2-en-1-yl)-4H-chromen-4-one] | – | – | 4.59 | much better trypanocidal activity than the control drug BNZ | < 10 µM | Cytotoxicity (LC50) [1]: >200 µM; EC50 [2, 6]: 10.3 µM
CC(C)=CCc1c(O)ccc2c(=O)ccoc12 [Compound 24, 7-Hydroxy-8-(3-methylbut-2-en-1-yl)-4H-chromen-4-one] | > 100 µM | – | >0.9 | – | 111 ± 18.5 µM | Trypanocidal activity (grade) ([2]; graded by EC50): very low
CC(=O)c1ccc(O)c(CC=C(C)C)c1O [Compound 15, 1-(2,4-Dihydroxy-3-(3-methylbut-2-en-1-yl)phenyl)ethan-1-one] | 25.2 ± 4.6 µM | – | 1.2 | – | 20.7 ± 1.1 µM | EC50 [2, 7]: 10 to 50 µM
CC(=O)c1c(O)cc(O)c(CC=C(C)C)c1O [Compound 17, 1-(2,4,6-Trihydroxy-3-(3-methylbut-2-en-1-yl)phenyl)ethan-1-one] | 21.2 ± 6.9 µM | – | 2.8 | – | < 10 µM | EC50 [2, 6]: 7.5 µM
CC(=O)c1ccc(O)c(O)c1O [Compound 8, 1-(2,3,4-Trihydroxyphenyl)ethan-1-one] | > 200 µM | 18.3 ± 1.1 µM | >10.9 | much better trypanocidal activity than the control drug BNZ | – | EC50 [2, 4]: 10 to 50 µM
COCOc1cc(O)c(C(=O)C=Cc2ccc(Cl)cc2)cc1CC=C(C)C [Compound 28, 3-(4-Chlorophenyl)-1-(2-hydroxy-4-(methoxymethoxy)-5-(3-methylbut-2-en-1-yl)phenyl)prop-2-en-1-one] | – | – | <2 | much better trypanocidal activity than the control drug BNZ | > 0.3 µM | Cytotoxicity level (grade) [1]: high (high when LC50 values were lower than 50 μM)
COCOc1cc(O)c(C(=O)C=Cc2ccc(OC)cc2)cc1CC=C(C)C [Compound 27, 1-(2-Hydroxy-4-(methoxymethoxy)-5-(3-methylbut-2-en-1-yl)phenyl)-3-(4-methoxyphenyl)prop-2-en-1-one] | 43.4 ± 7.3 µM | – | 1.2 | – | 35.3 ± 1.1 µM | EC50 [2, 7]: 10 to 50 µM
O=c1ccoc2ccc(O)cc12 [Compound 11, 6-Hydroxy-4H-chromen-4-one] | 28 ± 1.9 µM | 11.8 ± 0.3 µM | 2.4 | much better trypanocidal activity than the control drug BNZ | – | EC50 [2, 4]: 10 to 50 µM
CC(C)=CCc1ccc2occc(=O)c2c1O [Compound 25, 5-Hydroxy-6-(3-methylbut-2-en-1-yl)-4H-chromen-4-one] | – | – | >5.8 | much better trypanocidal activity than the control drug BNZ | 17.3 ± 0.4 µM | Cytotoxicity (LC50) [1]: 47.1 ± 5.5 µM; EC50 [2, 7]: 10 to 50 µM
O=c1ccoc2cc(O)ccc12 [Compound 10, 7-Hydroxy-4H-chromen-4-one] | 23.4 ± 6.4 µM | > 11.7 µM | <2 | – | – | –
COCOc1cc2oc(-c3ccc(OC)cc3)cc(=O)c2cc1CC=C(C)C [Compound 29, 7-(Methoxymethoxy)-2-(4-methoxyphenyl)-6-(3-methylbut-2-en-1-yl)-4H-chromen-4-one] | 17 ± 0.2 µM | – | <2 | much better trypanocidal activity than the control drug BNZ | > 9.8 µM | –
CC(=O)c1cc(CC=C(C)C)c(O)cc1O [Compound 14, 1-(2,4-Dihydroxy-5-(3-methylbut-2-en-1-yl)phenyl)ethan-1-one] | 34 ± 4.9 µM | – | <2 | – | > 17 µM | –
